Tested on: carrageenin induced edema
Assay: carrageenin test in rats (anti-inflammatory activity)
Assay type: in vivo
Text: The anti-inflammatory activity of some inventive compounds was evidenced by means of the carrageenin test in rats.

SMILES | inhibition of the carrageenin induced edema (50 mg./kg. p.o.) | inhibition of the carrageenin induced edema (100 mg./kg. p.o.)
Sc1nc2n(n1)CCc1ccccc1-2 [Example 38, 2-Sulfhydryl-5,6-dihydro-s-triazolo[5,1-a]isoquinoline] | about 35% | 
NC(=O)Nc1nc2n(n1)CCc1ccccc1-2 [Example 54, 2-Ureido-5,6-dihydro-s-triazolo[5,1-a]isoquinoline] |  | about 35%
